Assay results: patent EP0252380B1, “Antibiotic LL-E19020 alpha and beta” (AMERICAN CYANAMID COMPANY, priority 1986, dated 1988)
≈ marks a conversion by molar mass, not a printed value. Marks after values point to notes of the source that are not given here.

Key:
[1] = tested on: Staphylococcus aureus; assay: In vitro antibacterial activity, standard agar dilution method (Table II); type: cell-based
[2] = tested on: Staphylococcus saprophyticus; assay: as above; type: cell-based; details: strain VHG-84-50
[3] = tested on: Enterococcus; assay: as above; type: cell-based
[4] = tested on: Enterobacter cloacae; assay: as above; type: cell-based; details: strain VGH-84-37
[5] = tested on: Pasteurella multocida 31081B; assay: Pasteurella disk test (primary in vitro disk diffusion test); details: disks soaked in 2.5 mg/ml solution; strain 31081B
[6] = tested on: Pasteurella haemolytica 30660; assay: as above; type: cell-based; details: disks soaked in 2.5 mg/ml solution; strain 30660
[7] = tested on: Pasteurella multocida; assay: Minimum inhibitory concentration by agar dilution (Table VI); type: cell-based; details: 6 strains tested
[8] = tested on: Streptococcus uberis; assay: as above; type: cell-based; details: 1 strain tested
[9] = tested on: Bacteroides fragilis; assay: In vitro antibacterial activity, standard agar dilution method (Table II); type: cell-based; details: strain NYC 77-1
[10] = tested on: Caenorhabditis elegans; assay: Control of the free living nematode Caenorhabditis elegans (motility rating); type: cell-based; set-up: key: 9 = worms immobile or dead within 4 hours post immersion in microfilter test solution; 8 = no motility; 7 = markedly reduced motility in approximately 95% of worms; 6 = reduced motility; 5 = slightly reduced motility; 0 = normal motility, same as controls; details: 150 ppm; motility of adults and larvae
Description: Culture Maintenance: Cultures of C. elegans (Bristol strain from J. Lewis) are maintained on E. coli lawns on NG Agar Plates at 20 C. New cultures are established weekly. Nematodes for testing are washed from 4-5 day old cultures using Fresh Ascaris ringers Solution (FARS). The worms are further washed with FARS, containing gentamycin, to reduce bacterial contamination and centrifuged to separate worms from wash solution. This procedure is repeated three times. The washed worms are than added to C. briggsae Maintenance Medium (CbMM), from GIBCO^a to which is added gentamycin (600 units/ml) and mycostatin (0.5 mg.ml). ^aGIBCO Laboratories, 3175 Staley Road, Grand Island, N.Y. 14027, USA Compounds are dissolved in acetone and made up to volume with equal parts of water. The final test concentration of each compound in the mixture is 150 ppm. The test material is micropipetted (25 ul) into a single well of a 96-well sterile tissue culture plate (COSTAR)^b and the solvent allowed to evaporate. These "treated" plates are used immediately or stored in a freezer without apparent adverse effects on the compounds. ^b205 Broadway, Cambridge, MA 02139, USA […] […] Immediately prior to reading the plate, it is gently tapped to stimulate the movement of the worms. Activity is judged subjectively, but semi-quantitatively, based on the drug effects on motility of the adults and larvae. […]

[11] = tested on: Trichostrongylus colubriformis; assay: Trichostrongylus colubriformis/gerbil anthelmintic evaluation; type: in vivo, Gerbils
Experimental: Gerbils are infected with 400 infective larvae of the sheep parasite, T. colubriformis on a day 0. On day 7 gerbils are divided into test and untreated control groups of 2-3 animals. Drug is administered in the feed and are fed from day 7-11. Drugs may also be given by gavage (single oral dose) or injected subcutaneously. Single doses are usually administered on day 7. Gerbils are killed on day 11 and small intestines removed. The number of T. colubriformis remaining in the intestines of treated animals are counted and compared to the number remaining in the untreated controls.

[12] = tested on: Staphylococcus aureus Smith; assay: In vivo antibacterial activity in infected mice (Table III); details: S. aureus Smith, 30 minutes before infection
[13] = tested on: Pseudomonas aeruginosa; assay: In vitro antibacterial activity, standard agar dilution method (Table II); type: cell-based; details: strain 12-4-4
[14] = tested on: Mycoplasma gallisepticum "R"; assay: Minimum inhibitory concentration assay for Mycoplasma gallisepticum (microdilution, Table VII); details: microdilution; "R" strain
[15] = tested on: Escherichia coli; assay: Minimum inhibitory concentration by agar dilution (Table VI); type: cell-based; details: 2 strains tested
[16] = tested on: Pasteurella haemolytica; assay: as above; type: cell-based; details: 3 strains tested
[17] = Weight gain and feed efficiency of broiler chicks (Example 6, Table IX); type: in vivo, Peterson X Arbor Acres chicks; details: for Wg Gains And Feed Efficiency % Improvement Over Controls FEED/GAIN: control 1.41
[18] = tested on: Bordetella bronchiseptica; assay: Minimum inhibitory concentration by agar dilution (Table VI); type: cell-based; details: 4 strains tested
[19] = tested on: Streptococcus pneumoniae; assay: In vitro antibacterial activity, standard agar dilution method (Table II); type: cell-based
[20] = tested on: Streptococcus agalactiae; assay: Minimum inhibitory concentration by agar dilution (Table VI); type: cell-based; details: 4 strains tested
[21] = tested on: Staphylococcus epidermidis; assay: In vitro antibacterial activity, standard agar dilution method (Table II); type: cell-based; details: strain IO-83-58
[22] = tested on: Treponema hyodysenteriae; assay: Minimum inhibitory concentration by microdilution (Table VII); type: cell-based

In the case of `C/C=C\C=C\[C@@H]1O[C@](O)([C@H](CO[C@H]2C[C@@H](OC)[C@@H](O[C@@H]3C[C@@H](OC)[C@@H](O[C@H]4C[C@H](OC)[C@H](O)[C@H](C)O4)[C@H](C)O3)[C@@H](C)O2)C(=O)NC/C=C/C=C(\C)[C@@H](OC)[C@H](C)[C@H]2C[C@H](O)[C@H](/C=C/C=C/C=C/C(=O)O)O2)[C@H](OC(=O)Cc2ccccc2)[C@H](O)C1(C)C` [LL-E19020 alpha], the “Minimal Inhibitory Concentration” value ([1]; strain ATCC 25923) is reported as over 256 µg/mL, the “Minimal Inhibitory Concentration” value ([1]; strain CMC-83-127) is reported as over 256 µg/mL and the “Minimal Inhibitory Concentration” value ([1]; strain CMC-83-131) is reported as over 256 µg/mL. The “Minimal Inhibitory Concentration” value ([1]; strain CMC-83-132) was over 256 µg/mL, the “Minimal Inhibitory Concentration” value ([1]; strain SSC-82-57) was over 256 µg/mL and the “Minimal Inhibitory Concentration” value ([1]; strain Smith) was 128 µg/mL. The “Minimal Inhibitory Concentration” value ([1]; strain VGH-84-45) was over 256 µg/mL, the “Minimal Inhibitory Concentration” value [2] was over 256 µg/mL and the “Minimal Inhibitory Concentration” value ([3]; strain CMC-83-72) was over 256 µg/mL. The “Minimal Inhibitory Concentration” value ([3]; strain IO-83-28) was over 256 µg/mL, the “Minimal Inhibitory Concentration” value ([3]; strain IO-83-40) was over 256 µg/mL and the “Minimal Inhibitory Concentration” value ([3]; strain VGH-84-65) was 256 µg/mL. The “Minimal Inhibitory Concentration” value ([3]; strain VGH-84-68) was over 256 µg/mL, the “Minimal Inhibitory Concentration” value [4] was over 256 µg/mL and the “ZONE SIZE” value [5] was 15 mm. The “ZONE SIZE” value [6] was 13 mm, the MIC [7] was 8 to 16 µg/mL and the MIC [8] was 8 µg/mL (≈ 6.52 µM). The “Minimal Inhibitory Concentration” value [9] was over 128 µg/mL, the Rating [10] was 9 (immobile or dead) and the “% Worms Removed” value ([11]; 10 m/kg single oral dose) was 23%. For the same compound, the “% Worms Removed” value ([11]; 250 ppm diet, fed day 7-11) was 56%, the “Survival Ratios 7 Days After Infection” value ([12]; single subcutaneous dose 4 mg/kg) was 2/5 and the “Survival Ratios 7 Days After Infection” value ([12]; single subcutaneous dose 16 mg/kg) was 3/5. The “Survival Ratios 7 Days After Infection” value ([12]; single subcutaneous dose 64 mg/kg) was 3/5, the “Survival Ratios 7 Days After Infection” value ([12]; single subcutaneous dose 256 mg/kg) was 3/5 and the “Minimal Inhibitory Concentration” value [13] was over 256 µg/mL. The MIC [14] was 0.125 µg/mL (≈ 0.102 µM), the MIC [15] was “≧ 256 µg/ml” and the MIC [16] was 16 µg/mL (≈ 13 µM). The “Wg Gains And Feed Efficiency % Improvement Over Controls COMBINED” value ([17]; 12.5 PPM in diet) was 3.8%, the “Wg Gains And Feed Efficiency % Improvement Over Controls FEMALES” value ([17]; 12.5 PPM in diet) was 7.8* % and the “Wg Gains And Feed Efficiency % Improvement Over Controls MALES” value ([17]; 12.5 PPM in diet) was 0%. For the same compound, the “Wg Gains And Feed Efficiency % Improvement Over Controls FEED/GAIN” value ([17]; 12.5 PPM in diet) was 1.36*, the “Wg Gains And Feed Efficiency % Improvement Over Controls COMBINED” value ([17]; 25 PPM in diet) was 5.5% and the “Wg Gains And Feed Efficiency % Improvement Over Controls FEMALES” value ([17]; 25 PPM in diet) was 4.8%. For the same compound, the “Wg Gains And Feed Efficiency % Improvement Over Controls MALES” value ([17]; 25 PPM in diet) was 5.9%, the “Wg Gains And Feed Efficiency % Improvement Over Controls FEED/GAIN” value ([17]; 25 PPM in diet) was 1.34** and the “Wg Gains And Feed Efficiency % Improvement Over Controls COMBINED” value ([17]; 50 PPM in diet) was 6.6* %. The “Wg Gains And Feed Efficiency % Improvement Over Controls FEMALES” value ([17]; 50 PPM in diet) was 10.5** %, the “Wg Gains And Feed Efficiency % Improvement Over Controls MALES” value ([17]; 50 PPM in diet) was 3.6% and the “Wg Gains And Feed Efficiency % Improvement Over Controls FEED/GAIN” value ([17]; 50 PPM in diet) was 1.34**. For the same compound, the “Wg Gains And Feed Efficiency % Improvement Over Controls COMBINED” value ([17]; 100 PPM in diet) was 2.9%, the “Wg Gains And Feed Efficiency % Improvement Over Controls FEMALES” value ([17]; 100 PPM in diet) was 3.2% and the “Wg Gains And Feed Efficiency % Improvement Over Controls MALES” value ([17]; 100 PPM in diet) was 2.9%. For the same compound, the “Wg Gains And Feed Efficiency % Improvement Over Controls FEED/GAIN” value ([17]; 100 PPM in diet) was 1.34**, the “Wg Gains And Feed Efficiency % Improvement Over Controls COMBINED” value ([17]; 200 PPM in diet) was 5.7% and the “Wg Gains And Feed Efficiency % Improvement Over Controls FEMALES” value ([17]; 200 PPM in diet) was 7.1%. The “Wg Gains And Feed Efficiency % Improvement Over Controls MALES” value ([17]; 200 PPM in diet) was 4.5%, the “Wg Gains And Feed Efficiency % Improvement Over Controls FEED/GAIN” value ([17]; 200 PPM in diet) was 1.32** and the MIC [18] was over 256 µg/mL. For the same compound, the “Minimal Inhibitory Concentration” value ([19]; strain K-84-21) was 1 µg/mL, the “Minimal Inhibitory Concentration” value ([19]; strain SVI) was 1 µg/mL and the “Minimal Inhibitory Concentration” value ([19]; strain VGH-84-56) was 1 µg/mL. For the same compound, the “Minimal Inhibitory Concentration” value ([19]; strain VGH-84-57) was 2 µg/mL, the “Minimal Inhibitory Concentration” value ([19]; strain VGH-84-58) was 0.25 µg/mL and the “Minimal Inhibitory Concentration” value ([19]; strain VGH-84-59) was 0.25 µg/mL. The MIC [20] was 2 to 8 µg/mL, the “Minimal Inhibitory Concentration” value [21] was over 256 µg/mL and the MIC ([22]; strain B78 (ATCC 27164)) was 1 µg/mL (≈ 0.815 µM). For the same compound, the MIC ([22]; strain B204 (ATCC 31212)) was 1 µg/mL (≈ 0.815 µM).
